We go through 10 compounds from patent US9233903B2, “Pharmaceutical substances on the basis of mitochondria-addressed antioxidants” (Mitotech SA, priority 2009, dated 2016).

One data set deals with mitochondria. In words: Accumulation in mitochondria measured with tetraphenylphosphonium-selective electrode. Format: in vitro ADME. The note with it: FCCP uncoupler; FIG. 4. The procedure:
The ability of compounds of general formula (I) to accumulate in mitochondria was tested using a tetraphenylphosphonium-selective electrode. The method is used for compounds of general formula (I) in which the lipophilic cation tetraphenylphosphonium is used as the target group. With this electrode, it is possible to measure distribution of tetraphenylphosphonium cation (or compounds which comprise this cation) between the mitochondrial matrix and the medium.

Data set [1] can be described thus: Penetrating ability on artificial black (bilayer phospholipid) membranes, membrane potential. It is filed as physicochemical. The note with it: for membrane potential (Δψ) generated: concentration range from 10^−7 to 10^−6 M, FIG. 2B; for penetrating ability: bilayer membrane, comparison between compounds. From the text: To test the penetrating ability of mitochondria-addressed compounds of structure (I), a method is used based on the ability of ions to penetrate through the phospholipid membrane bilayer moving along the concentration gradient. […] If a charged substance can penetrate through the bilayer membrane, its rapid diffusion out of the chamber having a high concentration of the substance, to the chamber having a low concentration of the substance, occurs, and thus a membrane potential difference is created. For ions which are carrying one charge and able to easily penetrate through the membrane, a 10-fold concentration gradient allows for creation of a potential of 60 mV (according to the Nernst equation). This method was used in various studies of the ability of ions to pass through the lipid bilayer of the membrane.

Data set [2] in a line: Solubility in aqueous solutions.
A further data set concerns HeLa cells. Put plainly: H2O2-induced oxidative stress in cells, DCF-DA cytofluorimetry. It is filed as cell-based, human. Conditions: incubation for 1 to 5 hours. How it is done: To measure the level of oxidative stress stimulated by H2O2, cells were stained with fluorescent dye DCF-DA (2′,7′-dichloro-dihydrofluorescein diacetate), and the level of fluorescence of the dye was measured with a cytofluorimeter.
Estimates were made on the basis of seven experiments. Data were estimated with respect to a group of the control cells lying on the diagram in the area of low DCF-DA fluorescence (50% of the population), this group of cells was taken as 100% and indicators for every action were estimated relative to this group.

Data set [3] relates to E. coli MG1655 pLUX::PkatG.
Source text: (§1) To test pro-oxidant and antioxidant properties of mitochondria-addressed compounds of general formula (I), a method for determining oxidative stress in E. coli cells was developed. For this purpose, a biosensor system was created based on luxAB genes encoding bacterial luciferases to study effect of penetrating ions on oxidative stress in a bacterial cell.
The lux-biosensors were developed on the basis of these inducible promoters.
(§2) All the promoters used in the method, with corresponding regulatory regions, were obtained from the genome of the E. coli K12 MG1655 bacteria by the PCR method with the use of specific synthesized primers. A non-promoter vector with the pBR322 replicon and bla gene responsible for resistance to ampicillin (selective marker) was used as a vector. The promoter region was embedded into the plasmid at the EcoRI-BamHI sites. The lux operon of Ph. luminescens consisting of five genes, luxCDABE, was selected as the lux cassette.
(§3) In the first phase of testing, conditions for oxidative stress induction at which the maximum induction of luminescence occurs, were selected.
Data set [4] has as its system gramicidin channels. Put plainly: Protection of gramicidin channels in bilayer membrane, damage by FeSO4, ascorbate and tert-butyl hydroperoxide. Format: biochemical. Conditions: FeSO4, ascorbate, tert-butyl hydroperoxide; FIG. 3B. An excerpt:
A method was developed which allows the study of the antioxidant activity of compounds in a simple system consisting of a bilayer membrane, […]). […]

Data set [5] concerns HeLa and normal human diploid fibroblasts. Put plainly: Protection of cells against H2O2-induced death (apoptosis), Hoechst/PI counting. Format: cell-based. The note with it: incubation with the cells for 5 to 7 days.
Procedure: Testing of the antioxidant capacity of the compounds was performed using the methods of cytofluometry and fluorescence microscopy.
In preliminary experiments for each cell culture, the optimal concentration of H2O2 which causes significant (60% to 80%) cell apoptosis with no visible signs of necrosis was selected. To determine the chromatin condensation and fragmentation which occurs in apoptotic cells, the fluorescent dye Hoechst was used. The dye at a concentration of 1 μg/ml was added to live or fixed cells at the end of a 30 min incubation. To determine necrosis, the fluorescent dye propidium iodide (PI) at a concentration of 2 μg/ml was added to non-fixed cells. The percentage of apoptotic and necrotic cells was determined by counting the number of cells with fragmented nuclei and cells permeable to propidium iodide, respectively.
Data set [6] deals with E. coli MG1655 pLUX::PsoxS. Format: cell-based.
Source text: as §1
The PsoxS promoter is activated when superoxide ion-radical appears in the environment. The lux-biosensors were developed on the basis of these inducible promoters.
as §2, §3
For data set [7], the system named is gramicidin channels. In words: Protection of gramicidin channels in bilayer membrane, damage by photoactivated phthalocyanine. It is filed as biochemical. Conditions: photoactivation of phthalocyanine; FIG. 3A. From the text:
A method was developed which allows the study of the antioxidant activity of compounds in a simple system consisting of a bilayer membrane, a conducting protein gramicidin and a photosensitizer (Mito Tracker Red, Invitrogen, Carlsbad, Calif.), thrice sulfonated aluminum phthalocyanine or zinc phthalocyanine). The method uses the ability of reactive oxygen species generated by photoactivation of the photosensitizer molecules to damage gramicidin channels, resulting in a sharp decrease in the conducting ability of the bilayer membrane.

With `CC1=C(C)C(=O)C(CCCCC[P+](c2ccccc2)(c2ccccc2)c2ccccc2)=CC1=O` [SkQ5], the “energy-independent accumulation in mitochondria” value in the data set on mitochondria is “reduced”.
For `COc1ccc2c(CC(=O)OCCCCCCCC3=CC(=O)C(C)=C(C)C3=O)c3[n+](cc2c1OC)CCc1cc2c(cc1-3)OCO2` [SkQB1, 13-[7-(4,5-dimethyl-3,6-dioxo-cyclohexa-1,4-dien-1-yl)heptyloxycarbonyl-methyl]berberine], in data set [1], the “membrane potential (Δψ) generated” value is “almost the same Δψ as SkQ1”. For the same compound, the “solubility in aqueous solutions” value in [2] was “poor solubility”.
As for `CC/N=c1/cc2oc3cc(NCC)c(C)cc3c(-c3ccccc3C(=O)OCCCCCCCCCCC3=CC(=O)C(C)=C(C)C3=O)c-2cc1C` [SkQR1], the “concentration above which compound ceases to obey the Nernst equation (membrane damage)” value in [1] (FIG. 2A) was “higher than 5×10^−5 M”. Also, the penetrating ability entry in data set [1] was “higher penetrating ability”. Besides, the “effect on H2O2-induced oxidative stress in cells” value with HeLa cells is given as “has antioxidant activity”.
As to `OO` [Compound H2O2, hydrogen peroxide], in [3] (FIG. 10A), the “time at which induction of luminescence becomes evident” value was no more than 15 min and the “time to maximum luminescence” value is recorded as “one hour”. Moreover, the “ratio of luminescence intensity between control cells and induced cells” value in data set [3] (optimal concentrations of H2O2) is reported as 1/80.
On to `CC1=C(C)C(=O)C(CCCCCCCCCC[P+](c2ccccc2)(c2ccccc2)c2ccccc2)=CC1=O` [SkQ1, [10-(4,5-dimethyl-3,6-dioxo-cyclohexa-1,4-dien-1-yl)decyl]-triphenylphosphonium bromide], for which the “energy-independent accumulation in mitochondria” value with mitochondria is recorded as “independent of the degree of energization of the mitochondria”.
As for `COC1=C(OC)C(=O)C(CCCCCCCCCC[P+](c2ccccc2)(c2ccccc2)c2ccccc2)=C(C)C1=O` [MitoQ], the penetrating ability entry in data set [1] is “less penetrating abilities compared to SkQ3 or SkQR1”. Moreover, in the data set with gramicidin channels [4], the “antioxidant efficiency, protection of gramicidin channels” value was “less efficient antioxidants”. The “resistance of cells to H2O2” value in data set [5] is reported as “increase resistance of cells to H2O2”. For the same compound, the “effect on H2O2-induced oxidative stress in cells” value in the data set on HeLa cells was “did not prevent”.
Take `COc1cc2c(cc1OC)-c1c(CC(=O)OCCCCCCCC3=CC(=O)C(C)=C(C)C3=O)c3ccc(OC)c(OC)c3c[n+]1CC2` [SkQBP1, 13-[7-(4,5-dimethyl-3,6-dioxo-cyclohexa-1,4-dien-1-yl)heptyloxycarbonyl-methyl]palmatine]: the “membrane potential (Δψ) generated” value in [1] is “almost the same Δψ as SkQ1”.
As to `C[n+]1ccc(-c2cc[n+](C)cc2)cc1` [paraquat], in [6] (FIG. 10B), the “time at which induction of luminescence becomes evident” value was 15 to 20 min and the “time to maximum luminescence” value is “two hours”. Also, in data set [6] (optimal concentrations of paraquat), the “ratio of luminescence intensity between control cells and induced cells” value is 1/100.
`CC1=C(C)C(=O)C(CCCCCCCCCC[P+](c2ccccc2)(c2ccccc2)c2ccccc2)=C(C)C1=O` [SkQ3]: in the data set on gramicidin channels [4], the “antioxidant efficiency, protection of gramicidin channels” value was “less efficient antioxidants”.
As for superoxide dismutase, the “prevention of fall in membrane conductance (gramicidin channels)” value with gramicidin channels [7] is “effectively blocked”.
